Measurements published in patent US10533164B2, “Mutant sialidase having trans-sialidase activity for use in production of sialylated glycans” (priority 2013, dated 2020).
Residue numbers refer to the chain shown, from its start. Names may count otherwise.

How the values were obtained:
[1] = test system: Bifidobacterium longum (BI-05, DGCC 9917); test: Bacterial growth on sialylated glycans; type: cell-based; conditions: B. longum 9917; substrate 10 g/L in MRS-medium; average of 3 replicates
[2] = test system: Bifidobacterium longum infantis (DGCC 2238); test: Bacterial growth on sialylated glycans; type: cell-based; conditions: B. infantis 2238; substrate 10 g/L in MRS-medium; average of 3 replicates
[3] = test system: group of probiotic strains; test: Bacterial growth on sialylated glycans, probiotic strains as a group; type: cell-based
[4] = test system: Bifidobacterium longum longum (DGCC 232); test: Bacterial growth on sialylated glycans; type: cell-based; conditions: B. longum 232; for Area under the growth curve: substrate 10 g/L in MRS-medium, average of 3 replicates
[5] = test system: Bifidobacterium longum infantis (DGCC 233); test: Bacterial growth on sialylated glycans; type: cell-based; conditions: B. infantis 233; for Area under the growth curve: substrate 10 g/L in MRS-medium, average of 3 replicates
[6] = test system: Lactobacillus acidophilus (NCFM, ATCC 700396); test: Bacterial growth on sialylated glycans; type: cell-based; conditions: L. acidophilus; substrate 10 g/L in MRS-medium; average of 3 replicates
[7] = test system: Bifidobacterium lactis (HN019, DGCC2013); test: Bacterial growth on sialylated glycans; type: cell-based; conditions: B. lactis; substrate 10 g/L in MRS-medium; average of 3 replicates
[8] = test system: Bifidobacterium longum infantis (DGCC 1497); test: Bacterial growth on sialylated glycans; type: cell-based; conditions: B. infantis 1497; for Area under the growth curve: substrate 10 g/L in MRS-medium, average of 3 replicates
[9] = test system: Clostridium perfringens (ATCC 13124); type: cell-based; conditions: C. perfringens; substrate 10 g/L in MRS-medium; average of 3 replicates
[10] = Trans-sialidase activity assay (fluorescence-based); type: biochemical; conditions: for trans-sialidase activity relative to Tr6 parent (product formation, FIG. 4): mutants from shake flask cultures, cGMP donor, MU-Gal acceptor
Protocol: The invention provides a method for assaying the mutant trans-sialidase of the invention, that may for example be obtained by recombinant expression. Example 2.1 describes a fluorescence-based assay employing cGMP-bound sialic acid (for example 1 mM) as donor substrate and methylumbelliferyl-β-D-galactopyranoside (MU-Gal) as the acceptor (for example 0.5 mM), where the reaction is performed in a 50 mM phosphate-citrate (pH 6) at 30° C.
Trans-sialidase activity was assayed as described previously but with the following modifications. Reactions were performed in 50 mM phosphate-citrate (pH 6) at 30° C. using 2.9 μg/mL enzyme. The assay employed 1 mM cGMP-bound sialic acid as donor substrate and MU-Gal as the acceptor. MU-Gal at 0.5 mM was the highest final concentration to be tested due to its low solubility in aqueous solution. A solution of 87 mM MU-Gal in DMSO was diluted to 2 mM in 50 mM phosphate-citrate buffer (pH 6) immediately before preparing the reactions. When assaying crude enzyme preparations from P. pastoris, a background signal was observed, and attributed to cleavage of MU-Gal by endogenous β-galactosidase. This background signal could be removed by washing the column eight times with 440 μL of 5 mM HCl after sample application without desorption of the sialylated product and this was therefore done routinely.
To assess the performance of the mutant enzymes, they were produced by recombinant expression in P. pastoris, transformed with the respective mutant gene, by growth in shake flask cultures. The trans-sialidase activity of the expressed mutant enzymes was measured with a fluorescence-based assay using cGMP as sialic acid donor and methylumbelliferyl-β-D-galactopyranoside (MU-Gal) as acceptor (FIG. 4). As the detected product is a measure of both the trans-sialidase activity (product formation) and hydrolase activity (product degradation) the assay provides an effective screen for mutants having a higher trans-sialidase to hydrolase activity ratio.

[11] = Sialidase (hydrolase) activity assay; type: biochemical; conditions: substrate pNP-Neu5Ac; compared with Tr6
Protocol: Sialidase activity was measured in a reaction containing 50 mM phosphate-citrate buffer (pH 7), 0.75 mM pNP-NeuAc and 3 μg/mL sialidase enzyme. Reactions were initiated by addition of substrate and followed spectrophotometrically at 410 nm at 30° C. pH 7 was chosen to enable detection of released pNP in a continuous assay. Reaction rates were normalized as % of the activity of the Tr6 parent enzyme. For measurement of hydrolysis of natural substrates, the assay was performed with either 1 mM 3′-sialyllactose, 1 mM 6′-sialyllactose or 1 mM cGMP-bound sialic acid in 50 mM phosphate-citrate buffer (pH 5) using 1 μg/mL enzyme. Reactions were started by addition of enzyme and stopped by adding H2SO4 to 45 mM final concentration. Quantification of free sialic acid was performed using a 2-thiobarbituric acid assay with the modification that butanol extraction was substituted with mixing with dimethyl sulfoxide (DMSO).

In the case of CC(=O)NC1C(O)CC(OC2C(O)C(CO)OC(OCC3OC(O)C(O)C(O)C3O)C2O)(C(=O)O)OC1C(O)C(O)CO (stereo not drawn) [S-melibiose, SA-α-Gal-1,6-α-Glc], the “Area under the growth curve” value [1] is reported as 70 ± 8 OD600 × min, the “Area under the growth curve” value [2] is reported as 302 ± 2 OD600 × min and the “growth promotion (in words)” value [3] is reported as “did not appear to promote growth”. The “Area under the growth curve” value [4] was 104 ± 17 OD600 × min, the “Area under the growth curve” value [5] was 14 ± 6 OD600 × min and the “Area under the growth curve” value [6] was 192 ± 4 OD600 × min.

In the case of SA-α-Gal-1,4-β-Fru [S-lactulose], the “Area under the growth curve” value [1] is reported as 34 ± 14 OD600 × min, the “Area under the growth curve” value [7] is reported as 122 ± 18 OD600 × min and the “Area under the growth curve” value [2] is reported as 269 ± 20 OD600 × min. The “Area under the growth curve” value [8] was 34 ± 2 OD600 × min, the “Area under the growth curve” value [4] was 134 ± 19 OD600 × min and the “Area under the growth curve” value [5] was 109 ± 20 OD600 × min. The “Area under the growth curve” value [9] was 541 ± 17 OD600 × min and the “Area under the growth curve” value [6] was 128 ± 2 OD600 × min.

With SA-α-Fuc [S-fucose] the “Area under the growth curve” value [1] was 114 ± 15 OD600 × min, the “Area under the growth curve” value [7] was 192 ± 27 OD600 × min and the “Area under the growth curve” value [2] was 285 ± 15 OD600 × min. For the same molecule, the “growth promotion (in words)” value [8] was “promoted growth”, the “Area under the growth curve” value [8] was 149 ± 2 OD600 × min and the “growth promotion (in words)” value [4] was “promoted growth”. The “Area under the growth curve” value [4] was 192 ± 20 OD600 × min, the “growth promotion (in words)” value [5] was “promoted growth” and the “Area under the growth curve” value [5] was 71 ± 6 OD600 × min. For the same molecule, the “Area under the growth curve” value [9] was 811 ± 48 OD600 × min and the “Area under the growth curve” value [6] was 188 ± 18 OD600 × min.

With SA-α-Glc-1,4-α-Glc [S-maltose] the “Area under the growth curve” value [1] was 101 ± 6 OD600 × min, the “Area under the growth curve” value [7] was 102 ± 8 OD600 × min and the “Area under the growth curve” value [2] was 158 ± 24 OD600 × min. The “growth promotion (in words)” value [3] was “did not appear to promote growth”, the “Area under the growth curve” value [4] was 122 ± 31 OD600 × min and the “Area under the growth curve” value [5] was 30 ± 4 OD600 × min. The “Area under the growth curve” value [9] was 844 ± 99 OD600 × min and the “Area under the growth curve” value [6] was 193 ± 12 OD600 × min.

B1: Tr6 P98A: Tr6 mutant, reversion of mutation P98A (protein)
chain: LAPGSSRVELFKRKNSTVPFEESNGTIRERVVHSFRLPTIVNVDGVMVAIADARYETSFDNSFIETAVKYSVDDGATWNTQIAIKNSRASSVSRVVDATVIVKGNKLYILVGSFNKTRNYWTQHRDGSDWEPLLVVGEVTKSAANGKTTATISWGKPVSLKPLFPAEFDGILTKEFVGGVGAAIVASNGNLVYPVQIADMGGRVFTKIMYSEDDGNTWKFAEGRSKFGCSEPAVLEWEGKLIINNRVDYNRRLVYESSDMGKTWVEALGTLSHVWTNSPTSNQPDCQSSFVAVTIEGKRVMLFTHPLNLKGRWMRDRLHLWMTDNQRIFDVGQISIGDENSGYSSVLYKDDKLYSLHEINTNDVYSLVFVRLIGELQLMKSVVRTWKEEDNHLASICTPVVPATPPSKGACGAAVPTAGLVGFLSHSANGSVWEDVYRCVDANVANAERVPNGLKFNGVGGGAVWPVARQGQTRRYQFANYRFTLVATVTIDELPKGTSPLLGAGLEGPGDAKLLGLSYDKNRQWRPLYGAAPASPTGSWELHKKYHVVLTMADRQGSVYVDGQPLAGSGNTVVRGATLPDISHFYIGGPRSKGAPTDSRVTVTNVVLYNRRLNSSEIRTLFLSQDMIGTDGGAGTAA
In the case of B1, the “trans-sialidase activity relative to Tr6 parent (product formation, FIG. 4)” value [10] is reported as “reduction in trans-sialidase activity”.

B2: Tr6 D363E: Tr6 sialidase mutant with amino acid change D363E (protein)
chain: B1 chain with A98P, D363E
For B2, the “hydrolase activity (FIG. 5A)” value [11] was “reduced hydrolase activity”, the “trans-sialidase activity relative to Tr6 parent (product formation, FIG. 4)” value [10] was “enhanced trans-sialidase activity” and the “trans-sialylated product yield (maximum product formation, FIG. 5B)” value ([10]; purified enzyme from 5 L fermentor, time course, compared with Tr6) was “similarly low product formation profile as Tr6”.

B3: Tr6 Y249G: Tr6 mutant, reversion of mutation Y249G (protein)
chain: B1 chain with A98P, Y249G
With B3 the “trans-sialidase activity relative to Tr6 parent (product formation, FIG. 4)” value [10] was “reduction in trans-sialidase activity”.
